The results in this text go back to patent publication US6117866A, “Bicyclic fibrinogen antagonists” (SmithKline Beecham Corporation, priority 1996, dated 2000).

This experiment concerns human platelets. Put plainly: Inhibition of Platelet Aggregation (human platelets stimulated with ADP). The format is cell-based. The conditions noted are these: in vitro.

For `O=C(O)CC1Nc2cc(C(=O)Nc3ccc4c(c3)CNCC4)ccc2CN(CCc2ccccc2)C1=O` (racemic) [Example 4, (R,S)-8-[[(1,2,3,4-tetrahydro-7-isoquinolinyl]amino]carbonyl]-2,3,4,5-tetrahydro-3-oxo-4-(2-phenylethyl)-1H-1,4-benzodiazepine-2-acetic acid], the IC50 was ~75 µM. Under `O=C(O)CC1Nc2ccc(C(=O)Nc3ccc4c(c3)CNCC4)cc2CN(CCc2ccccc2)C1=O` (racemic) [Example 7, (R,S)-7-[[(1,2,3,4-tetrahydro-7-isoquinolinyl]amino]carbonyl]-2,3,4,5-tetrahydro-3-oxo-4-(2-phenylethyl)-1H-1,4-benzodiazepine-2-acetic acid] stands 0.2 to 11 µM; under `CN(CCC1CCNCC1)C(=O)c1ccc2c(c1)CC(CCC(=O)O)C(=O)N(CCc1ccccc1)C2` (racemic) [Example 22, (R,S)-2,3,4,5-tetrahydro-3-oxo-2-(2-phenylethyl)-7-[[[2-(4-piperidinyl)ethyl]-methylamino]carbonyl]-1H-2-benzazepine-4-propionic acid], 0.2 to 11 µM. Under `O=C(O)CC1Nc2ccc(C(=O)N3CCC(C4CCNCC4)CC3)cc2CN(CCc2ccccc2)C1=O` (single isomer, unassigned; (+)) [Example 23, (+)-7-[(4,4'-bipiperidin-1-yl)carbonyl]-2,3,4,5-tetrahydro-3-oxo-4-(phenylethyl)-1H-1,4-benzodiazepine-2-acetic acid] stands 0.2 to 11 µM.

As to `CN1Cc2cc(C(=O)N3CCC(C4CCNCC4)CC3)ccc2N[C@H](CC(=O)O)C1=O` [Example 26, (R)-7-[(4,4'-bipiperidin-1-yl)carbonyl]-2,3,4,5-tetrahydro-4-methyl-3-oxo-1H-1,4-benzodiazepine-2-acetic acid], the IC50 lay within 0.2 to 11 µM.
